According to US9593305B2, “Differentiation of pluripotent stem cells” (Janssen Biotech, Inc., priority 2008, dated 2017):

Tested on: H1 human embryonic stem cells
Test: Compounds and growth factors with low dose activin A (Example 9, Table 9)
Type: cell-based
Method: Clusters of H1 human embryonic stem cells were grown on reduced growth factor […]™ (Invitrogen; Cat #356231)-coated tissue culture plastic. Cells were passaged using collagenase (Invitrogen; Cat #17104-019) treatment and gentle scraping, washed to remove residual enzyme, and plated with even dispersal at a ratio of 1:1 (surface area) on reduced growth factor […]™-coated 96-well black plates (Packard ViewPlates; PerkinElmer; Cat #6005182) using volumes of 100 μl/well. Cells were allowed to attach as clusters and then recover log phase growth over a 1 to 3 day period, feeding daily with MEF conditioned medium supplemented with 8 ng/ml bFGF (R&D Systems; Cat #233-FB). Plates were maintained at 37° C., 5% CO2 in a humidified box throughout the duration of assay.
Stocks of growth factors purchased from R&D Systems were EGF (Cat #236-EG), FGF4 (Cat #235-F4), PDGF-A (Cat #221-AA), PDGF-D (Cat #1159-SB), PDGF-A/B (Cat #222-AB), VEGF (Cat #293-VE), and GDF-8 (Cat #788-08). Activin A was purchased from PeproTech (Cat #). Muscimol was purchased from Tocris (Cat #0289). All growth factors were solubilized in PBS with 0.1% BSA (Sigma; Cat #A7888) and stored frozen at −80° C. Muscimol was solubilized in 100% DMSO (Sigma; Cat #D2650) and stored frozen at −80° C. The compounds were available as 5 mM stocks in 96-well plate format, solubilized in 100% DMSO and stored at −80° C. The compounds were further diluted to an intermediate concentration of 0.2 mM in 50 mM HEPES (Invitrogen; Cat #15630-080), 20% DMSO and stored at 4° C. All growth factors and inhibitors were prepared in a deep well, 96-well polypropylene plate, diluted to 5× intermediate stocks in DMEM:F12 base medium at the beginning of assay and stored at 4° C.
A secondary screening assay was conducted, testing in triplicate and feeding on alternate days over the four-day assay timeframe. Assays were initiated by aspirating culture medium from each well followed by three washes in PBS to remove residual growth factors and serum. Test volumes of 80 μl per well were added back containing DMEM:F12 base medium (Invitrogen; Cat #11330-032) supplemented with 0.625% FCS (HyClone; Cat #SH30070.03), 25 ng/ml Wnt3a (R&D Systems), 12.5 ng/ml activin A, and 3.125 μM compound plus 20 μl 5× stock of growth factor or small molecule to yield a final concentration of 0.5% FCS, 20 ng/ml Wnt3a, 10 ng/ml activin A, and 2.5 μM compound. All remaining growth factors were tested at a final assay concentration of 50 ng/ml (EGF, FGF4, PDGF-A, PDGF-A/B, VEGF), with the exception of GDF-8 used at 25 ng/ml. Final assay concentration of muscimol was 20 μM. Positive control wells (100 μl/well) contained the same base medium supplemented with 0.5% FCS, 20 ng/ml Wnt3a and 10 ng/ml (low dose) or 100 ng/ml (high dose) activin A. Negative control wells (100 μl/well) contained the same base medium with 0.5% FCS and 20 ng/ml Wnt3a, omitting activin A.
Positive control wells (100 μl/well) contained the same base medium supplemented with 2% FCS and 10 ng/ml or 100 ng/ml activin A, omitting Wnt3a. Negative control wells (100 μl/well) contained the same base medium with 2% FCS, omitting both activin A and Wnt3a.
At the conclusion of four-days of culture, assay plates were washed twice with PBS, fixed with 4% paraformaldehyde (Alexis Biochemical; Cat #ALX-350-011) at room temperature for 20 minutes, then washed three times with PBS and permeabilized with 0.5% Triton X-100 (Sigma; Cat #T8760-2) for 20 minutes at room temperature. Cells were washed again three times with PBS and blocked with 4% chicken serum (Invitrogen; Cat #16110082) in PBS for 30 minutes at room temperature. Primary antibody (goat anti-human SOX17; R&D Systems; cat #AF1924) was diluted 1:100 in 4% chicken serum and added to each well for one hour at room temperature. […]

[1] = 10 ng/ml AA + compound + EGF + FGF4 + PDGF-A + Muscimol + Wnt3a
[2] = 10 ng/ml AA + compound + EGF + FGF4 + PDGF-A + VEGF + PDGF-D + Muscimol + GDF8 + Wnt3a
[3] = 10 ng/ml AA + compound + EGF + FGF4 + PDGF-AB + VEGF + Wnt3a
[4] = 10 ng/ml AA + compound + EGF + FGF4 + PDGF-AB + Wnt3a
[5] = 10 ng/ml AA + compound + EGF + FGF4 + Wnt3a
[6] = 10 ng/ml AA + compound + EGF + Wnt3a
[7] = 10 ng/ml AA + compound + FGF4 + Wnt3a

Structure (SMILES) | Cell Number, % of positive control [1] | Cell Number, Average Total Cell Number [1] | Sox17 Expression, % of positive control [1] | Sox17 Expression, Average Total Intensity [1] | Cell Number, % of positive control [2] | Cell Number, Average Total Cell Number [2] | Sox17 Expression, % of positive control [2] | Sox17 Expression, Average Total Intensity [2] | Cell Number, % of positive control [3] | Cell Number, Average Total Cell Number [3] | Sox17 Expression, % of positive control [3] | Sox17 Expression, Average Total Intensity [3] | Cell Number, % of positive control [4] | Cell Number, Average Total Cell Number [4] | Sox17 Expression, % of positive control [4] | Sox17 Expression, Average Total Intensity [4] | Cell Number, % of positive control [5] | Cell Number, Average Total Cell Number [5] | Sox17 Expression, % of positive control [5] | Sox17 Expression, Average Total Intensity [5] | other results
CCN1CC(=O)NCCCc2cncc(c2)-c2ncnc(n2)Nc2cc(Cl)cc(c2)C1 [Compound 35, 10-Chloro-14-ethyl-3,5,7,14,17,23,27-heptaazatetracyclo[19.3.1.1˜2,6˜0.1˜8,12]Theptacosa-1(25), 2(27), 3,5,8(26), 9,11,21,23-nonaen-16-one] | 62.29 % of positive control | 3820 | −1.46 % of positive control | −1.67E+06 | 41.14 % of positive control | 2522 | −4.25 % of positive control | −4.86E+06 | 56.74 % of positive control | 3479 | −3.46 % of positive control | −3.96E+06 | 53.21 % of positive control | 3263 | −3.99 % of positive control | −4.56E+06 | 44.10 % of positive control | 2704 | −3.65 % of positive control | −4.17E+06 | Cell Number, % of positive control [6]: 2.53 % of positive control; Cell Number, Average Total Cell Number [6]: 155; Sox17 Expression, % of positive control [6]: −6.84 % of positive control; Sox17 Expression, Average Total Intensity [6]: −7.82E+06; Cell Number, % of positive control [7]: 4.64 % of positive control; Cell Number, Average Total Cell Number [7]: 284; Sox17 Expression, % of positive control [7]: −6.59 % of positive control; Sox17 Expression, Average Total Intensity [7]: −7.54E+06; Cell Number, % of positive control (10 ng/ml AA + compound + Wnt3a): 2.83 % of positive control; Cell Number, Average Total Cell Number (10 ng/ml AA + compound + Wnt3a): 173; Sox17 Expression, % of positive control (10 ng/ml AA + compound + Wnt3a): −6.66 % of positive control; Sox17 Expression, Average Total Intensity (10 ng/ml AA + compound + Wnt3a): −7.61E+06
O=C1NCCCc2cncc(c2)-c2ncnc(n2)Nc2cccc(c2)CN2CCC1CC2 [Compound 22, 1,8,10,12,16,22,30-Heptaazapentacyclo[22.2.2.1-3,7˜0.1˜9,13˜1-14,18˜]hentriaconta-3(31), 4,6,9(30), 10,12,14(29), 15,17-nonaen-23-one] | 132.10 % of positive control | 8100 | 38.65 % of positive control | 4.42E+07 | 139.53 % of positive control | 8556 | 76.82 % of positive control | 8.78E+07 | 124.87 % of positive control | 7657 | 41.09 % of positive control | 4.70E+07 | 130.06 % of positive control | 7975 | 30.03 % of positive control | 3.43E+07 | 159.83 % of positive control | 9800 | 40.13 % of positive control | 4.59E+07 | Cell Number, % of positive control [6]: 81.55 % of positive control; Cell Number, Average Total Cell Number [6]: 5001; Sox17 Expression, % of positive control [6]: 24.45 % of positive control; Sox17 Expression, Average Total Intensity [6]: 2.80E+07; Cell Number, % of positive control [7]: 105.84 % of positive control; Cell Number, Average Total Cell Number [7]: 6490; Sox17 Expression, % of positive control [7]: 37.43 % of positive control; Sox17 Expression, Average Total Intensity [7]: 4.28E+07; Cell Number, % of positive control (10 ng/ml AA + compound + Wnt3a): 74.09 % of positive control; Cell Number, Average Total Cell Number (10 ng/ml AA + compound + Wnt3a): 4543; Sox17 Expression, % of positive control (10 ng/ml AA + compound + Wnt3a): 26.65 % of positive control; Sox17 Expression, Average Total Intensity (10 ng/ml AA + compound + Wnt3a): 3.05E+07
